# Measurements as given in paper PMC10464554 (Journal of Enzyme Inhibition and Medicinal Chemistry, 2023).
# Columns and labels:
# [1] = molecular target: Nsp5; details: cited from earlier work
# [2] = molecular target: NT650-Nps5 (recombinant SARS-CoV-2 main protease Nsp5) (Severe acute respiratory syndrome coronavirus 2, UniProt P0DTD1); assay: biochemical; assay type: binding
# [3] = system: SARS-CoV-2 BA.5 strain; assay type: cell-based
# [4] = system: Vero E6 cells; details: 200–0.1 µM, 24 h, MTT
# [5] = system: SARS-CoV-2; details: replication of SARS-CoV-2 in Vero E6 cells; cited from earlier work
# [6] = system: SARS-CoV-2; details: Vero E6 cells, 72 h readout; cited from earlier work
# [7] = system: Nsp5; details: irreversible inhibitor of Nsp5; cited from earlier work
smiles,measurement,setting,value
"O=c1oc2c(O)c(O)cc3c(=O)oc4c(O)c(O)cc1c4c23 [Ellagic acid (7), ellagic acid]",Dissociation constant (SPR),[1],low micromolar
same,Kd,[2],0.97 ± 0.14 µM
same,Binding Efficiency Index (BEI),[2]; BEI = pKd/MW (kDa),19.9
"CC(C)(C)[C@H](NC(=O)C(F)(F)F)C(=O)N1C[C@H]2[C@@H]([C@H]1C(=O)N[C@H](C#N)C[C@@H]1CCNC1=O)C2(C)C [Nirmatrelvir (1), Nirmatrelvir]",Viral replication (supernatant viral titre),[3],significantly reduce the number of infective particles
same,Cell viability (cytotoxic effect),[4],well-tolerated by Vero E6 cells at all the concentrations tested
"O=c1c(O)c(-c2cc(O)c(O)c(O)c2)oc2cc(O)cc(O)c12 [Myricetin (2), myricetin]",EC50,[5],8 µM
same,Antiviral SARS-CoV-2 activity (CPE inhibition),[6],devoid of antiviral SARS-CoV-2 activity
same,IC50,[7],0.63 ± 0.01 µM
